Experimental data taken from patent publication US20040121931A1, “Aqueous perborate bleach composition” (Unilever Home & Persona Care USA, Division of Conopco, Inc., priority 2002, published 2004).

Assay: Iterative determination of perborate solubility in water and polyol/water (visual)
Format: physicochemical
Description: An iterative process was used to determine the extent of perborate solubilty in water and polyol/water. 1.5 g of Na perborate monohydrate was added either to 100 g of water (Table 1A) or to 90 g water and 10 g sorbitol (70% active) (Table 1B). The mixture was stirred until all of sodium perborate monohydrate was dissolved. A 0.5 g aliquot of sodium perborate monohydrate was then added to the solution while stirring and visually monitored to see if all the added sodium perborate monohydrate dissolves. If the aliquot dissolved, another 0.5 g of sodium perborate monohydrate would be added. This procedure was continued until the added perborate no longer appeared to dissolve.

[1] = 1.50 g in 90 g water + 10 g sorbitol (70%), perborate/sorbitol 1/3.55
[2] = 3.50 g in 90 g water + 10 g sorbitol (70%), perborate/sorbitol 1/1.01
[3] = 5.50 g in 90 g water + 10 g sorbitol (70%), perborate/sorbitol 1.43/1
[4] = 8.00 g in 90 g water + 10 g sorbitol (70%), perborate/sorbitol 2.09/1
[5] = 8.50 g in 90 g water + 10 g sorbitol (70%), perborate/sorbitol 2.22/1
[6] = 9.50 g in 90 g water + 10 g sorbitol (70%), perborate/sorbitol 2.49/1

O.O=BO[O-].[Na+] [Sodium Perborate monohydrate, sodium perborate monohydrate]
Appearance [1]: Clear solution | pH [1]: 8.30 | Appearance (1.5 g in 100 g water): Clear solution | pH (1.5 g in 100 g water): 10.00 | Appearance (2.0 g in 100 g water): Precipitate formed | pH (2.0 g in 100 g water): 10.06 | Appearance [2]: Clear solution | pH [2]: 9.33 | Appearance [3]: Clear solution | pH [3]: 9.56 | Appearance [4]: Clear solution | pH [4]: 9.60 | Appearance [5]: Precipitate | pH [5]: 9.60 | Appearance [6]: Precipitate | pH [6]: 9.60 | solubility in water, in the presence of polyol (90 g water and 10 g sorbitol (70% active)): up to 8.5 g | increase of solubility of perborate by polyol (aqueous environment, with sorbitol vs without): about 400% | solubility in water (in 100 g water, no polyol): below 2.0 g
